Like-named read-outs stand apart in the source and are kept apart here.
Experiment: 28-day repeat-dose toxicity study, toxicokinetics of AMXT 1501 dicaprate
Format: in vivo, beagle dogs
Details: both sexes, beagle, dog, plasma, po
Experimental: AMXT 1501 PK parameters were calculated for all AMXT 1501 dicaprate-dosed animals for the first dose (Day 1) and last dose (Day 28).

SMILES: CCCCCCCCCCCCCCCC(=O)NCCCC[C@@H](N)C(=O)NCCCNCCCCNCCCN [AMXT 1501 dicaprate]
- AUC(0-t) (8 mg/kg/day, 8 mg/kg/day PO, DFMO 0, Day 1, M+F combined, read-out: AUC0-24 hr Median): 1500 ng·h/mL
- Cmax (8 mg/kg/day, 8 mg/kg/day PO, DFMO 0, Day 1, M+F combined, read-out: Cmax Mean): 95.6 ng/mL
- Cmax (8 mg/kg/day, 8 mg/kg/day PO, DFMO 0, Day 1, M+F combined, read-out: Cmax Median): 115 ng/mL
- Tmax (8 mg/kg/day, 8 mg/kg/day PO, DFMO 0, Day 1, M+F combined, read-out: Tmax Mean): 5.33 h
- Tmax (8 mg/kg/day, 8 mg/kg/day PO, DFMO 0, Day 1, M+F combined, read-out: Tmax Median): 6 h
- AUC(0-t) (8 mg/kg/day, 8 mg/kg/day PO, DFMO 0, Day 28, M+F combined, read-out: AUC0-24 hr Mean): 2210 ng·h/mL
- AUC(0-t) (8 mg/kg/day, 8 mg/kg/day PO, DFMO 0, Day 28, M+F combined, read-out: AUC0-24 hr Median): 1690 ng·h/mL
- AUC(0-t) (8 mg/kg/day, 8 mg/kg/day PO, DFMO 0, Day 28, M+F combined, read-out: AUC0-t Mean): 3390 ng·h/mL
- AUC(0-t) (8 mg/kg/day, 8 mg/kg/day PO, DFMO 0, Day 28, M+F combined, read-out: AUC0-t Median): 1900 ng·h/mL
- AUC(0-inf) (8 mg/kg/day, 8 mg/kg/day PO, DFMO 0, Day 28, M+F combined, read-out: AUC0-∞ Mean): 3440 ng·h/mL
- AUC(0-inf) (8 mg/kg/day, 8 mg/kg/day PO, DFMO 0, Day 28, M+F combined, read-out: AUC0-∞ Median): 1930 ng·h/mL
- Cmax (8 mg/kg/day, 8 mg/kg/day PO, DFMO 0, Day 28, M+F combined, read-out: Cmax Mean): 153 ng/mL
- Cmax (8 mg/kg/day, 8 mg/kg/day PO, DFMO 0, Day 28, M+F combined, read-out: Cmax Median): 127 ng/mL
- Tmax (8 mg/kg/day, 8 mg/kg/day PO, DFMO 0, Day 28, M+F combined, read-out: Tmax Mean): 4.6 h
- Tmax (8 mg/kg/day, 8 mg/kg/day PO, DFMO 0, Day 28, M+F combined, read-out: Tmax Median): 6 h
- half-life (8 mg/kg/day, 8 mg/kg/day PO, DFMO 0, Day 28, M+F combined, read-out: t1/2 Mean (converted)): 1180 min
- half-life (8 mg/kg/day, 8 mg/kg/day PO, DFMO 0, Day 28, M+F combined, read-out: t1/2 Median (converted)): 1120 min
- AUC(0-t) (8 mg/kg/day, 8 mg/kg/day PO, DFMO 50 mg/kg/day, Day 28, M+F combined, read-out: AUC0-24 hr Mean): 2120 ng·h/mL
- AUC(0-t) (8 mg/kg/day, 8 mg/kg/day PO, DFMO 50 mg/kg/day, Day 28, M+F combined, read-out: AUC0-24 hr Median): 2250 ng·h/mL
- AUC(0-t) (8 mg/kg/day, 8 mg/kg/day PO, DFMO 50 mg/kg/day, Day 28, M+F combined, read-out: AUC0-t Mean): 3010 ng·h/mL
- AUC(0-t) (8 mg/kg/day, 8 mg/kg/day PO, DFMO 50 mg/kg/day, Day 28, M+F combined, read-out: AUC0-t Median): 2970 ng·h/mL
- AUC(0-inf) (8 mg/kg/day, 8 mg/kg/day PO, DFMO 50 mg/kg/day, Day 28, M+F combined, read-out: AUC0-∞ Mean): 3070 ng·h/mL
- AUC(0-inf) (8 mg/kg/day, 8 mg/kg/day PO, DFMO 50 mg/kg/day, Day 28, M+F combined, read-out: AUC0-∞ Median): 3020 ng·h/mL
- Cmax (8 mg/kg/day, 8 mg/kg/day PO, DFMO 50 mg/kg/day, Day 28, M+F combined, read-out: Cmax Mean): 152 ng/mL
- Cmax (8 mg/kg/day, 8 mg/kg/day PO, DFMO 50 mg/kg/day, Day 28, M+F combined, read-out: Cmax Median): 171 ng/mL
- Tmax (8 mg/kg/day, 8 mg/kg/day PO, DFMO 50 mg/kg/day, Day 28, M+F combined, read-out: Tmax Mean): 6.67 h
- Tmax (8 mg/kg/day, 8 mg/kg/day PO, DFMO 50 mg/kg/day, Day 28, M+F combined, read-out: Tmax Median): 6 h
- half-life (8 mg/kg/day, 8 mg/kg/day PO, DFMO 50 mg/kg/day, Day 28, M+F combined, read-out: t1/2 Mean (converted)): 1080 min
- half-life (8 mg/kg/day, 8 mg/kg/day PO, DFMO 50 mg/kg/day, Day 28, M+F combined, read-out: t1/2 Median (converted)): 1220 min
- AUC(0-t) (8 mg/kg/day, 8 mg/kg/day PO, DFMO 200 mg/kg/day, Day 1, M+F combined, read-out: AUC0-24 hr Mean): 1470 ng·h/mL
- AUC(0-t) (8 mg/kg/day, 8 mg/kg/day PO, DFMO 200 mg/kg/day, Day 1, M+F combined, read-out: AUC0-24 hr Median): 1390 ng·h/mL
- Cmax (8 mg/kg/day, 8 mg/kg/day PO, DFMO 200 mg/kg/day, Day 1, M+F combined, read-out: Cmax Mean): 101 ng/mL
- Cmax (8 mg/kg/day, 8 mg/kg/day PO, DFMO 200 mg/kg/day, Day 1, M+F combined, read-out: Cmax Median): 86.5 ng/mL
- Tmax (8 mg/kg/day, 8 mg/kg/day PO, DFMO 200 mg/kg/day, Day 1, M+F combined, read-out: Tmax Mean): 9 h
- Tmax (8 mg/kg/day, 8 mg/kg/day PO, DFMO 200 mg/kg/day, Day 1, M+F combined, read-out: Tmax Median): 9 h
- AUC(0-t) (16 mg/kg/day, 16 mg/kg/day PO, DFMO 0, Day 1, M+F combined, read-out: AUC0-24 hr Mean): 2500 ng·h/mL
- AUC(0-t) (16 mg/kg/day, 16 mg/kg/day PO, DFMO 0, Day 1, M+F combined, read-out: AUC0-24 hr Median): 1750 ng·h/mL
- Cmax (16 mg/kg/day, 16 mg/kg/day PO, DFMO 0, Day 1, M+F combined, read-out: Cmax Mean): 155 ng/mL
- Cmax (16 mg/kg/day, 16 mg/kg/day PO, DFMO 0, Day 1, M+F combined, read-out: Cmax Median): 113 ng/mL
- Tmax (16 mg/kg/day, 16 mg/kg/day PO, DFMO 0, Day 1, M+F combined, read-out: Tmax Mean): 6 h
- Tmax (16 mg/kg/day, 16 mg/kg/day PO, DFMO 0, Day 1, M+F combined, read-out: Tmax Median): 6 h
- AUC(0-t) (16 mg/kg/day, 16 mg/kg/day PO, DFMO 0, Day 28, M+F combined, read-out: AUC0-24 hr Mean): 4590 ng·h/mL
- AUC(0-t) (16 mg/kg/day, 16 mg/kg/day PO, DFMO 0, Day 28, M+F combined, read-out: AUC0-24 hr Median): 4890 ng·h/mL
- AUC(0-t) (16 mg/kg/day, 16 mg/kg/day PO, DFMO 0, Day 28, M+F combined, read-out: AUC0-t Mean): 7970 ng·h/mL
